We go through 13 molecules from patent US10155802B2, “Locally-active anticoagulants and anti-inflammatory agents” (priority 2011, dated 2018).

Positions of bridges follow the written chain, without caps; N, C: chain ends. Non-standard residues stand in square brackets, D forms with d. Residues, ends and D or L forms follow the SMILES beside them. Chains are numbered I, II in the order given. No end group written: not given here. *: point of attachment. Benzenesulfonyl(4-tBu) = CC(C)(C)c1ccc(S(=O)(=O)*)cc1; Dansyl = CN(C)c1cccc2c(S(=O)(=O)*)cccc12; dTic = O=C(O)[C@H]1Cc2ccccc2CN1; dPip = O=C(O)[C@H]1CCCCN1 A value given as a limit tells only on which side of the number the result lay.

Common to all, as to assay type: biochemical
In experiment [1] the target is T1, Human α-thrombin (Homo sapiens, UniProt P00734).
T1 construct: Human α-thrombin was purchased from Haemotologic Technologies, Inc., VT, USA; purchased Haemotologic Technologies, Inc., VT, USA
Put plainly: Thrombin inhibition constants of monovalent active-site moieties and TWE1 (method not described).

Experiment [2] addresses T1, Human α-thrombin. Nature of the experiment: Inhibition of thrombin-catalyzed hydrolysis of chromogenic substrate S-2366 (inhibition constant Ki). As to conditions: Ki.
A further experiment has as its target thrombin (Homo sapiens, UniProt P00734). Nature of the experiment: Fibrinogen clotting assay (concentration needed to double the clotting time = IC50). The procedure: The same enzyme kinetic assays were used to determine the inhibitory activities of MH2 and two MH2-derived peptides, MH2-allGS and MH2-GS (Table 4). Clotting assays were carried out to determine the inhibitory activities of the rest of the MH2 peptides by use of the protocols described previously (DiMaio 1990; Taka 2000; Su 2004). The assay employs bovine plasma fibrinogen dissolved at 0.1% in 50 mM Tris-Cl, 100 mM NaCl, 0.1% PEG-8000 at pH 7.6 (i.e. the clotting buffer). In addition to the use of optical densities or ODs (Gill 1989), concentrations of the peptide stock solutions were ranked (and corrected when necessary) by use of quantitative proton NMR spectroscopy (Cavaluzzi 2002). Each assay mixture contained a certain concentration of the peptide, and the reaction was started by the addition of human thrombin to a final concentration of approximately 0.5 nM. Optical absorbance of the assay mixtures was measured at 420 nm using the Spectramax™ plate reader. The onset clotting time was determined as an intersection of the baseline and the tangent line at point of inflection of the clotting curve. The concentration of an MH2 peptide needed to double the clotting time was defined as IC50 (DiMaio 1990) as illustrated in FIG. 4 and summarized in Table 4. The correlation between IC50 values and linker unfolding is similar to that for the BTI series of inhibitors (Table 3). […] (Table 3).

In experiment [3] the test system is pooled human plasma. Put plainly: Prothrombin time (PT, thromboplastin) clotting assay. The procedure: (§1) Prothrombin (clotting) time (PT) or activated partial thromboplastin (clotting) time (APTT) assays were carried out at certain concentrations of the thrombin inhibitors of the present invention using pooled human plasma with addition of thromboplastin or activated partial thromboplastin to initiate clotting. The assays employed kits from Biopool International (Ventura, Calif., USA) or from Pacific Haemostasis (Middletown, Va., USA) using the procedures supplied by the manufacturer. Briefly, the stock solution of an inhibitor (with the concentration determined using UV-based OD determination, see Gill 1989) is diluted in a buffer of 20 mM HEPES and 150 mM NaCl at pH 7.4 (HBS) to a final volume of 50 μL, to which is added the reconstituted normal plasma (Product #CMS-176172 from Fisher Scientific) in an equal volume. This solution mixture is equilibrated at 37° C. for 2 minutes before 50 μL of the APTT-10XL solution (CMS-022927) is introduced forcibly to ensure proper mixing. This new mixture was incubated at 37° C. for another 5 minutes, which is followed by the addition of 50 μL of 0.02 M […] (Fisher Scientific CMS-022925) pre-warmed at 37° C. For the prothrombin time (PT) assay, an inhibitor is diluted in HBS to a final volume of 25 μL, to which is added the reconstituted control plasma (Fisher Scientific CMS-176172) in an equal volume. This solution mixture is equilibrated at 37° C. for 5 minutes before addition of 100 μL of the thromboplastin solution (CMS-176099) pre-warmed at 37° C. For APTT assays, inhibitory activities of the peptides are expressed as concentrations needed to achieve 50% of the maximum delay in clotting time (MCT50) as compared to the absence of thrombin inhibitors (Maraganore 1989). For PT assays, inhibitory activities are measured as the concentrations of the peptides that prolong the clotting time by 50% (IC50) of that of the normal control plasma (Maraganore 1990). PT and APTT assays were also carried out using slightly modified experimental procedures. Thus, 50 μL of a control plasma (Pacific Hemostasis) solution was added to 100 μL HBS (20 mM HEPES and 150 mM NaCl at pH 7.4) containing varied concentrations of the peptides of this invention. After incubation at 37° C. for 5 min, the mixture was added to 50 μL of the thromboplastin or activated partial thromboplastin reagent. Clotting of the plasma was monitored by change in absorbance at 420 nm using a SpectraMax™ plate reader.

Experiment [4] relates to pooled human plasma. Nature of the experiment: Activated partial thromboplastin time (APTT) clotting assay. To be noted: 37° C.; concentration for 50% of maximum delay in clotting time; read-out: MTC50 (APTT). The procedure:
as §1

Setting [5] is: monovalent binding moieties for the active site of thrombin.

What is called Ki is the dissociation constant of the complex between target and ligand, obtained from inhibition or displacement. Read a high Ki as weaker binding. On to `CN(C)c1cccc2c(S(=O)(=O)N[C@@H](CCCNC(=N)N)C(=O)N3Cc4ccccc4C[C@@H]3C(N)=O)cccc12` [Dansyl-R-(d-Tic)-NH2] (Dansyl-Arg-[dTic]-NH2), for which, at Human α-thrombin [1] (setting [5]), the inhibition constant (Ki) came to 860 ± 60 nM.
For the molecule `CC[C@H](C)[C@H](NC(=O)[C@H](CCC(=O)O)NC(=O)[C@H](CCC(=O)O)NC(=O)[C@H](Cc1ccccc1)NC(=O)[C@H](CC(=O)O)NC(=O)CNC(=O)[C@H](CCC(=O)O)NC(=O)[C@@H](NC(=O)[C@H](Cc1c[nH]c2ccccc12)NC(=O)[C@@H](NC(=O)[C@H](Cc1c[nH]c2ccccc12)NC(=O)[C@@H](NC(=O)[C@H](CCCCN)NC(=O)[C@@H](NC(=O)[C@H](C)NC(=O)[C@H](CC(=O)O)NC(=O)[C@H](CC(=O)O)NC(=O)[C@H](Cc1c[nH]c2ccccc12)NC(=O)[C@@H](NC(=O)[C@H](Cc1c[nH]c2ccccc12)NC(=O)[C@H](CCC(=O)O)NC(=O)CNC(=O)[C@H](CC(=O)O)NC(=O)[C@@H](NC(=O)[C@H](Cc1ccccc1)NC(=O)[C@H](CCCNC(=N)N)NC(=O)[C@@H]1CCCN1)[C@@H](C)O)[C@@H](C)O)[C@@H](C)O)[C@@H](C)O)[C@@H](C)O)[C@@H](C)O)C(=O)N1CCC[C@H]1C(=O)N[C@@H](CCC(=O)O)C(=O)N[C@@H](CCC(=O)O)C(=O)N[C@@H](Cc1ccc(O)cc1)C(=O)N[C@@H](CC(C)C)C(=O)N[C@@H](CCC(N)=O)C(=O)O` [BRI-T109], the Ki at Human α-thrombin [2] (FIG. 14A) is 1450 nM.
The molecule `N=C(N)NCCC[C@H](NC(=O)[C@@H]1CCCN1C(=O)[C@H](N)Cc1ccccc1)C(=O)O` [H-dFPR] returned a Ki at Human α-thrombin [1] (setting [5]) of 1570 ± 60 nM.
On the same count and under the same terms, the value for `CN(C)c1cccc2c(S(=O)(=O)N[C@@H](CCCNC(=N)N)C(=O)N3CCCC[C@@H]3C(N)=O)cccc12` [Dansyl-R-(d-Pip)-NH2] (Dansyl-Arg-[dPip]-NH2) was 370 ± 40 nM; that for `CC(=O)N[C@H](Cc1ccccc1)C(=O)N1CCC[C@H]1C(=O)N[C@@H](CCCNC(=N)N)C(=O)O` [Ac-dFPR] was 170000 ± 18000 nM.
As a reminder, the IC50 is the concentration that gives 50% inhibition. Higher therefore signals weaker potency. Take `CC[C@H](C)[C@H](N)C(=O)N[C@@H](CCCNC(=N)N)C(=O)N[C@@H](Cc1ccccc1)C(=O)N[C@H](C(=O)N[C@@H](CC(=O)O)C(=O)NCC(=O)N[C@@H](CCC(=O)O)C(=O)NCC(=O)N[C@H](C(=O)N1CCC[C@H]1C(=O)N[C@@H](CC(N)=O)C(=O)N1CCC[C@H]1C(=O)N[C@@H](CCC(=O)O)C(=O)N[C@@H](CO)C(=O)N[C@@H](Cc1c[nH]cn1)C(=O)N[C@@H](CC(N)=O)C(=O)N[C@@H](CC(N)=O)C(=O)NCC(=O)N[C@@H](CC(=O)O)C(=O)N[C@@H](Cc1ccccc1)C(=O)N[C@@H](CCC(=O)O)C(=O)N[C@@H](CCC(=O)O)C(=O)N[C@H](C(=O)N1CCC[C@H]1C(=O)N[C@@H](CCC(=O)O)C(=O)N[C@@H](CCC(=O)O)C(=O)N[C@@H](Cc1ccc(O)cc1)C(=O)N[C@@H](CC(C)C)C(=O)N[C@@H](CCC(N)=O)C(=O)O)[C@@H](C)CC)[C@@H](C)O)[C@@H](C)O` [MH2]: the IC50 on thrombin (IC50, printed inside the sequence cell of Table 1, temperature not stated) is ~14 nM.
With `CC(C)(C)c1ccc(S(=O)(=O)N[C@@H](CCCNC(=N)N)C(=O)N2CCCC[C@@H]2C(N)=O)cc1` [Bbs-R-(d-Pip)-NH2], on Human α-thrombin [1] (setting [5]), the Ki was 1130 ± 30 nM.
Still for that read-out and setting: the value for `CC(C)(C)c1ccc(S(=O)(=O)N[C@@H](CCCNC(=N)N)C(=O)N2CCCC[C@@H]2C(=O)N[C@@H](Cc2c[nH]c3ccccc23)C(N)=O)cc1` [Bbs-R-(d-Pip)-W-NH2] was 6000 ± 1000 nM.
Take `CC[C@H](C)[C@H](N)C(=O)N[C@@H](CCCNC(=N)N)C(=O)N[C@@H](Cc1ccccc1)C(=O)N[C@H](C(=O)N[C@@H](CC(=O)O)C(=O)NCC(=O)N[C@@H](CCC(=O)O)C(=O)N[C@@H](Cc1c[nH]c2ccccc12)C(=O)N[C@H](C(=O)N[C@@H](Cc1c[nH]c2ccccc12)C(=O)N[C@@H](CC(=O)O)C(=O)N[C@@H](CC(=O)O)C(=O)N[C@@H](C)C(=O)N[C@H](C(=O)N[C@@H](CCCCN)C(=O)N[C@H](C(=O)N[C@@H](Cc1c[nH]c2ccccc12)C(=O)N[C@H](C(=O)N[C@H](C(=O)N[C@H](C(=O)N[C@@H](CCC(=O)O)C(=O)NCC(=O)N[C@@H](CC(=O)O)C(=O)N[C@@H](Cc1ccccc1)C(=O)N[C@@H](CCC(=O)O)C(=O)N[C@@H](CCC(=O)O)C(=O)N[C@H](C(=O)N1CCC[C@H]1C(=O)N[C@@H](CCC(=O)O)C(=O)N[C@@H](CCC(=O)O)C(=O)N[C@@H](Cc1ccc(O)cc1)C(=O)N[C@@H](CC(C)C)C(=O)N[C@@H](CCC(N)=O)C(=O)O)[C@@H](C)CC)[C@@H](C)O)C(C)C)[C@@H](C)O)[C@@H](C)O)[C@@H](C)O)[C@@H](C)O)[C@@H](C)O` [MH2-wZIP6]: in the experiment with pooled human plasma [3], the “concentrations required in PT-APTT curves relative to MH2-GS” value is “about 2.5 times”. Further, the concentration for half-maximal inhibition (IC50) in the experiment with pooled human plasma [3] (37° C., concentration that prolongs clotting time by 50%) is < 400 nM; on thrombin (IC50 (anti-clotting), T = 37° C.) it was 53 nM. Further, in the experiment on pooled human plasma [4], the EC50 is 3000 nM.
With `CC[C@H](C)[C@H](NC(=O)[C@H](CCC(=O)O)NC(=O)[C@H](CCC(=O)O)NC(=O)[C@H](Cc1ccccc1)NC(=O)[C@H](CC(=O)O)NC(=O)CNC(=O)[C@H](CCC(=O)O)NC(=O)[C@@H](NC(=O)[C@H](Cc1c[nH]c2ccccc12)NC(=O)[C@@H](NC(=O)[C@H](Cc1c[nH]c2ccccc12)NC(=O)[C@@H](NC(=O)[C@H](CCCCN)NC(=O)[C@@H](NC(=O)[C@H](C)NC(=O)[C@H](CC(=O)O)NC(=O)[C@H](CC(=O)O)NC(=O)[C@H](Cc1c[nH]c2ccccc12)NC(=O)[C@@H](NC(=O)[C@H](Cc1c[nH]c2ccccc12)NC(=O)[C@H](CCC(=O)O)NC(=O)CNC(=O)[C@H](CC(=O)O)NC(=O)[C@@H](NC(=O)[C@H](Cc1ccccc1)NC(=O)[C@H](CCCNC(=N)N)NC(=O)[C@@H]1CCCN1C(=O)[C@H](CCCNC(=N)N)NC(=O)[C@@H]1CCCN1C(=O)[C@H](CCC(N)=O)NC(=O)[C@@H](N)Cc1ccccc1)[C@@H](C)O)[C@@H](C)O)[C@@H](C)O)[C@@H](C)O)[C@@H](C)O)[C@@H](C)O)C(=O)N1CCC[C@H]1C(=O)N[C@@H](CCC(=O)O)C(=O)N[C@@H](CCC(=O)O)C(=O)N[C@@H](Cc1ccc(O)cc1)C(=O)N[C@@H](CC(C)C)C(=O)O` [BRI-T207], the inhibition constant Ki at Human α-thrombin [2] (T = 37° C., enzyme kinetics, chromogenic substrate) was ~400 nM.
For `CC(C)(C)c1ccc(S(=O)(=O)N[C@@H](CCCNC(=N)N)C(=O)N2CCCC[C@@H]2C(=O)NCC(N)=O)cc1` [Bbs-R-(d-Pip)-G-NH2], the Ki at Human α-thrombin [1] (setting [5]) worked out at 2260 ± 100 nM.
`CC(C)(C)OC(=O)N[C@H](Cc1ccccc1)C(=O)N1CCC[C@H]1C(=O)N[C@@H](CCCNC(=N)N)C(=O)O` [Boc-dFPR] displayed a Ki at Human α-thrombin [1] (setting [5]) of 4380 ± 180 nM.
For the molecule “variant of BTI1: disulfide-bond linkage between Bbs-Arg-(D-Pip)-Gly-Cys and 15N-labelled Cys-(GS)8-GDFEEIPEEYLQ (peptide 1 {Benzenesulfonyl(4-tBu)}-R[dPip]GC; peptide 2 CGSGSGSGSGSGSGSGSGDFEEIPEEYLQ; disulfide I:4-II:1; also: chain 2 15N-labelled) [TWE1]”, in the experiment with Human α-thrombin [1] (bivalent inhibitor TWE1), the Ki was 2.2 ± 0.4 nM.
